According to PMC3849272, “Strong cellulase inhibitors from the hydrothermal pretreatment of wheat straw” (Biotechnology for Biofuels, 2013):

How the values were obtained:
TrCel7B = target: T1, TrCel7B (Trichoderma reesei, UniProt P07981); experiment: inhibition of 4-methylumbelliferyl-beta-lactoside hydrolysis, fluorescence, initial rates; type: biochemical; conditions: 20 μM MUL, 10 nM enzyme, 50 mM sodium acetate pH 5.0, BSA 0.1 g/l, 35°C
T1 construct: gene egl1; native enzyme purified from culture filtrate of T. reesei QM 9414; secreted, signal peptide removed
T1 sequence (P07981 23-459): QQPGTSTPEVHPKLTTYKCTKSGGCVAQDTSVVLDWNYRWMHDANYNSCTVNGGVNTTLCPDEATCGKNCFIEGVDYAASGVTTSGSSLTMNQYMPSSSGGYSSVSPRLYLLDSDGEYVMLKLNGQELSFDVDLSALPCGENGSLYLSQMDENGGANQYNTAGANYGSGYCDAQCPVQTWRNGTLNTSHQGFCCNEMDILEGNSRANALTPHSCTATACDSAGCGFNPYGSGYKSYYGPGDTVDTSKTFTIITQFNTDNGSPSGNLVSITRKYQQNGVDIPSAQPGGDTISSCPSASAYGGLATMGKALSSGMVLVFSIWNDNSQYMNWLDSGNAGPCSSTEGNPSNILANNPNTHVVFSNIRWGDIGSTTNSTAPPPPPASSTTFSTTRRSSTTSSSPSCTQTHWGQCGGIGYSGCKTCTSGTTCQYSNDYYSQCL

TrCel7A = target: T2, TrCel7A (Trichoderma reesei, UniProt P62694); experiment: as above; type: biochemical; conditions: 5 μM MUL, 10 nM enzyme, 50 mM sodium acetate pH 5.0, BSA 0.1 g/l, 35°C
T2 construct: gene cbh1; native enzyme purified from culture filtrate of T. reesei QM 9414; secreted, signal peptide removed; about 50 kDa
T2 sequence (P62694 18-513): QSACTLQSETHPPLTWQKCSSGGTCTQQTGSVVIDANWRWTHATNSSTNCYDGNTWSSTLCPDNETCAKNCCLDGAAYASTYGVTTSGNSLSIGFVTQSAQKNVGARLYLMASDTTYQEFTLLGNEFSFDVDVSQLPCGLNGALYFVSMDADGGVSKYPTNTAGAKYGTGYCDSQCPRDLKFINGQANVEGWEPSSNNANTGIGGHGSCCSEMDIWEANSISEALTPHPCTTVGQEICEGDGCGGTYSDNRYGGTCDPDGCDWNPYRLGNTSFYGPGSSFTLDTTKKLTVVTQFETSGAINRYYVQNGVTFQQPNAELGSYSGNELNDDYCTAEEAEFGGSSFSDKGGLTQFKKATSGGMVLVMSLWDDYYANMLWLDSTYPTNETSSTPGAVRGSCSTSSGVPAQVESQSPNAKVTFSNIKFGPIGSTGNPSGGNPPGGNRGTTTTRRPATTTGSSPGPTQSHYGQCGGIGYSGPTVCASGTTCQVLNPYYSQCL

IC50 (TrCel7B): 8.9 ± 0.4 mM
IC50 (TrCel7A): 0.036 ± 0.006 mM
Structure (SMILES): OC[C@H]1O[C@@H](O[C@H]2[C@H](O)[C@@H](O)C(O)O[C@@H]2CO)[C@H](O)[C@@H](O)[C@@H]1O (some centres unmarked) [cellobiose]
